Assay results published in article PMC5444383 (Biochemistry, 2016).
Where two headings read alike, the source gives them in different places.

Key:
[1] = biological target: T1, ethylene-forming enzyme (EFE) (Pseudomonas savastanoi, UniProt P32021); experiment: anaerobic UV-vis difference titration; format: binding
[2] = biological target: T1, ethylene-forming enzyme (EFE); experiment: anaerobic UV-vis difference titration; format: binding; remark: listed apart in the source
O=C(O)CCCC(=O)C(=O)O = experiment: purified protein; details: Fe(II) active-site Fe(II) (MLCT transition)

T1 sequence (P32021 whole entry): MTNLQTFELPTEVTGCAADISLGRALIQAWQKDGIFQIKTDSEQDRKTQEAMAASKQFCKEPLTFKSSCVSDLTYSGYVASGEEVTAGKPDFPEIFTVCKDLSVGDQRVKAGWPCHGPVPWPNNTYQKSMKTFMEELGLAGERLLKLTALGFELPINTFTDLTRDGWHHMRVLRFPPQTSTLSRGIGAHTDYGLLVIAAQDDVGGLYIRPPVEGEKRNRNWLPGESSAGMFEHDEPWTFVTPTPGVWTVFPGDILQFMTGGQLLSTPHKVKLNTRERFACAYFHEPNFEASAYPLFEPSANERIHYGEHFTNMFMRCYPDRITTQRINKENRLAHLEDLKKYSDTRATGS

For `O=C(O)CCC(=O)C(=O)O` [2OG, 2-oxoglutarate], the Kd [1] was 25 ± 7 µM.
Compound `N=C(N)NCCC[C@H](N)C(=O)O` [L-Arg, L-arginine] has a Kd [2] of 34 ± 25 µM.
Work on “ethylene-forming enzyme (EFE) (Pseudomonas savastanoi pv. phaseolicola)” yielded a Km (O=C(O)CCCC(=O)C(=O)O) of 31 ± 4 µM and a kcat (O=C(O)CCCC(=O)C(=O)O) of 0.00417 ± 0.000333 s⁻¹.
